Data reported in patent publication US5338869A, “Hydroxyphenylpropionic ester having novel crystal structure” (Sumitomo Chemical Company, Limited, priority 1992, dated 1994).

Legend:
Format in all cases: physicochemical
[1] = Angle of spatula of crystals
[2] = Bulk specific gravity (packed state)
[3] = Angle of repose of crystals
[4] = Solubility in organic solvents at 20° C.
[5] = Hygroscopicity: moisture content after exposure to 100% relative humidity (Karl Fischer method); settings: for Hygroscopicity (Water content in % by weight): room temperature, relative humidity 100%
From the text: Consequently, the crystals can be used conveniently and advantageously with no additional treatment, such as re-drying and moisture-proof packing, even in such uses as the production of polyurethane, which is susceptible to the influence of moisture.

Structure (SMILES) | Angle of Spatula [1] | Bulk Specific Gravity [2] | Angle of Repose [3] | Solubility at 20° C. ([4]; Cyclohexane) | Solubility at 20° C. ([4]; Methanol) | Solubility at 20° C. ([4]; Toluene) | Hygroscopicity (Water content in % by weight) ([5]; exposure period 0 Days) | Hygroscopicity (Water content in % by weight) ([5]; exposure period 1 Day) | Hygroscopicity (Water content in % by weight) ([5]; exposure period 50 Days) | Hygroscopicity (Water content in % by weight) ([5]; exposure period 100 Days) | solubility in organic solvents (in words) ([4]; compared with the δ-crystals and the αβ-crystals) | hygroscopicity (in words) ([5]; compared with the prior αβ- and δ-crystals)
Cc1cc(CCC(=O)OCC(C)(C)C2OCC3(CO2)COC(C(C)(C)COC(=O)CCc2cc(C)c(O)c(C(C)(C)C)c2)OC3)cc(C(C)(C)C)c1O (stereo not shown) [Example 1, 3,9-bis[2-{3-(3-t-butyl-4-hydroxy-5-methylphenyl)propionyloxy}-1,1-dimethylethyl]-2,4,8,10-tetraoxaspiro[5,5]undecane] | 57 ° | 0.59 | 45 ° | – | – | – | – | – | – | – | – | –
Cc1cc(CCC(=O)OCC(C)(C)C2OCC3(CO2)COC(C(C)(C)COC(=O)CCc2cc(C)c(O)c(C(C)(C)C)c2)OC3)cc(C(C)(C)C)c1O (stereo not shown) [Comparative Example 1, 3,9-bis[2-{3-(3-t-butyl-4-hydroxy-5-methylphenyl)propionyloxy}-1,1-dimethylethyl]-2,4,8,10-tetraoxaspiro[5.5]undecane, reference compound] | 65 ° | 0.43 | 50 ° | – | – | – | – | – | – | – | – | –
Cc1cc(CCC(=O)OCC(C)(C)C2OCC3(CO2)COC(C(C)(C)COC(=O)CCc2cc(C)c(O)c(C(C)(C)C)c2)OC3)cc(C(C)(C)C)c1O (stereo not shown) [ε-Crystal, 3,9-bis[2-{3-(3-t-butyl-4-hydroxy-5-methylphenyl)propionyloxy}-1,1-dimethylethyl]-2,4,8,10-tetraoxaspiro[5.5]undecane] | – | – | – | 0.02 g/100 g solvent | 4 g/100 g solvent | 9 g/100 g solvent | 0.04 % by weight | 0.06 % by weight | 0.05 % by weight | 0.05 % by weight | lower solubility in organic solvents than the δ-crystals and the αβ-crystals | smaller in hygroscopicity than the prior αβ- and δ-crystals

Now from value to molecule, other results behind:

Angle of Spatula [1] | Bulk Specific Gravity [2] | Angle of Repose [3] | Solubility at 20° C. ([4]; Cyclohexane) | Solubility at 20° C. ([4]; Methanol) | Solubility at 20° C. ([4]; Toluene) | Hygroscopicity (Water content in % by weight) ([5]; exposure period 0 Days) | Hygroscopicity (Water content in % by weight) ([5]; exposure period 1 Day) | Hygroscopicity (Water content in % by weight) ([5]; exposure period 50 Days) | Hygroscopicity (Water content in % by weight) ([5]; exposure period 100 Days) | Structure (SMILES) | solubility in organic solvents (in words) ([4]; compared with the δ-crystals and the αβ-crystals) | hygroscopicity (in words) ([5]; compared with the prior αβ- and δ-crystals)
58 ° | 0.66 | 47 ° | – | – | – | – | – | – | – | Cc1cc(CCC(=O)OCC(C)(C)C2OCC3(CO2)COC(C(C)(C)COC(=O)CCc2cc(C)c(O)c(C(C)(C)C)c2)OC3)cc(C(C)(C)C)c1O (stereo not shown) [Example 3, 3,9-bis[2-{3-(3-t-butyl-4-hydroxy-5-methylphenyl)propionyloxy}-1,1-dimethylethyl]-2,4,8,10-tetraoxaspiro[5.5]undecane] | – | –
58 ° | 0.60 | 45 ° | – | – | – | – | – | – | – | Cc1cc(CCC(=O)OCC(C)(C)C2OCC3(CO2)COC(C(C)(C)COC(=O)CCc2cc(C)c(O)c(C(C)(C)C)c2)OC3)cc(C(C)(C)C)c1O (stereo not shown) [Example 2, 3,9-bis[2-{3-(3-t-butyl-4-hydroxy-5-methylphenyl)propionyloxy}-1,1-dimethylethyl]-2,4,8,10-tetraoxaspiro[5.5]undecane] | – | –
– | – | – | 0.06 g/100 g solvent | 9 g/100 g solvent | 15 g/100 g solvent | 0.10 % by weight | 0.47 % by weight | 0.50 % by weight | 0.45 % by weight | Cc1cc(CCC(=O)OCC(C)(C)C2OCC3(CO2)COC(C(C)(C)COC(=O)CCc2cc(C)c(O)c(C(C)(C)C)c2)OC3)cc(C(C)(C)C)c1O (stereo not shown) [δ-Crystal, 3,9-bis[2-{3-(3-t-butyl-4-hydroxy-5-methylphenyl)propionyloxy}-1,1-dimethylethyl]-2,4,8,10-tetraoxaspiro[5.5]undecane, reference compound] | – | –
74 ° | 0.40 | 53 ° | – | – | – | – | – | – | – | Cc1cc(CCC(=O)OCC(C)(C)C2OCC3(CO2)COC(C(C)(C)COC(=O)CCc2cc(C)c(O)c(C(C)(C)C)c2)OC3)cc(C(C)(C)C)c1O (stereo not shown) [Comparative Example 2, 3,9-bis[2-{3-(3-t-butyl-4-hydroxy-5-methylphenyl)propionyloxy}-1,1-dimethylethyl]-2,4,8,10-tetraoxaspiro[5.5]undecane, reference compound] | – | –
